Results from a melting point compilation (Tetko et al.; mined from patent text by program, amines drawn as free bases though some values may be those of a salt).

melting point [°C] | Compound
75 to 77 | C#CCOc1cc(N)ccc1C
136 to 138 | [N-]=[N+]=NCCc1cccc2[nH]cc(S(=O)(=O)c3cccc(F)c3)c12
128 to 131 | OCCOc1c(Br)cc(Br)c2cccnc12
55 to 58 | CCOC(=O)c1oc(Cl)nc1C
104 to 105 | C[C@@H](O)CNC(=O)N1CC(Oc2ccc(C(C)(C)C)cc2)C1
87 to 89 | CC(C)N1C(=O)NC(c2ccc3c(c2)OCO3)c2cc3c(cc21)OCO3 (stereo unspecified)
240 to 242 | CCOC(=O)c1cn2c3c(c(F)c(F)cc3c1=O)OCC2COC(=O)c1cc([N+](=O)[O-])cc([N+](=O)[O-])c1 (stereo unspecified)
162 | CC(=O)c1ccc(Nc2c(C(=O)NOCCO)ccc(F)c2F)c(Cl)c1
278 to 281 | O=C(NCc1ccc2c(c1)-c1[nH]nc(-c3ccsc3)c1C2)c1ccncc1
72 to 72.5 | CN(CCCSc1ccncc1)C(=O)c1cccs1
127 to 129 | O=C1CC(CO)(C(=O)N(Cc2ccccc2)Cc2ccccc2)CN1Cc1ccccc1 (stereo unspecified)
297 to 301 | Cc1ccc(N2C(=O)NC(NCC(C)C)NC2=O)cc1
169 to 171 | COCCCCCCCCCCCC(=O)Nc1cccc(C(=O)O)c1
233 to 238 | O=C(O)Cc1c(C(=O)c2ccc(Cl)cc2)[nH]c2ccc(F)cc12
104 to 105 | CCCCCS(=O)(=O)NC(=O)CCc1cc(OCCCC)nn1Cc1ccc(Cl)cc1Cl
156 to 157 | Cc1nc(N2CCN(CCc3ccccc3)C2=O)sc1C(=O)NCc1ccccc1
70 to 72 | CCCCCCC(C(=O)OCC)n1c(C(F)(F)C(F)(F)F)nc2cc(-c3ccccc3-c3nn[nH]n3)ccc21 (stereo unspecified)
119 to 120 | COC(=O)c1cccc(-c2nc(CCl)c(C)o2)c1
> 300 | Cn1nnnc1-c1cnc2ccc(F)cc2c1O
150 to 151 | CCC1(CC)OC(=O)Nc2ccc(-c3cccc(Cl)c3)cc21
83 to 84 | CC1(C)SCc2ccccc2C1=NO

melting point [°C] | Compound
282 to 284 | O=S1(=O)N=C(NC2CCCCC2)Nc2cc(Cl)sc21
108 | CCOC1CCN(C(=O)c2ccc(Cl)c(C3(C)C(=O)N(Cc4ccc(OC)cc4OC)c4ccc(Cl)cc43)c2)CC1 (stereo unspecified)
138 to 140 | O=C(NCCO)C(=O)c1ccc(OCCOc2ccc3ccccc3c2)cc1
193 to 195 | COc1ccc(C(=O)O)c([N+](=O)[O-])c1
154 to 155 | O=C1[C@H]2CCC[C@H]2Nc2ccccc2N1Cc1ccc(OCc2ccccc2)cc1 (relative stereo)
124 to 127 | O=C(O)Cc1ccc(-c2ccc(C(CC3CCOCC3)c3ccc(S(=O)(=O)C4CC4)cc3)[nH]2)nc1 (stereo unspecified)
41 | C=C(C)C(=O)OCc1ccc(SC)cc1
178 to 179 | FC1CC(Nc2ncnc3[nH]ncc23)CCC1OCC(F)(F)c1ccccc1 (stereo unspecified)
151 to 154 | COc1cc(CCNc2ncnc3scnc23)ccc1O
183 to 185 | COc1ccc(-c2cc3cc(Cl)ccc3o2)cc1
55 to 56 | CCOC(=O)CN(C)c1ccc(N=O)cc1
142 to 143 | COc1nc(C)nc(NC(=O)NS(=O)(=O)c2ccccc2C=CCC#N)n1
217 to 219 | Cc1ccc(-c2cccc(NC(=O)Nc3cccc4c3CC(O)CC4)c2)cc1 (stereo unspecified)
281 to 283 | N=C(NO)c1ccc(-c2ccc(-c3nc4cc(C(=N)NO)ccc4[nH]3)c(F)c2)cc1
83 to 85 | CC(C)Sc1nc(OS(C)(=O)=O)cs1
142 to 143 | O=C(Nc1ccc(C(=O)N2C[C@@H]3CCCN3S(=O)(=O)c3ccccc32)cc1)c1ccccc1-c1ccccc1
103 to 105 | C[C@H](Cn1nnc2ccccc21)n1cnc2cc3c(=O)n(C4CC4)nnc3cc2c1=O
170 to 172 | CN(C)/C=C1/C(=O)N(C(=O)OC(C)(C)C)C2C3=C(CCCC3(C)C)CC12 (stereo unspecified)
76 to 79 | O=CNc1nc(OCOC(=O)C2CCCC2)ncc1F
84 to 87 | CC1(C)[C@@H](Cn2nccn2)CC[C@@]1(C)NCC(=O)N1C[C@@H](F)C[C@H]1C#N
175 to 176 | O=C1c2ccccc2C(=O)N1CC(Br)(c1ccccc1)C(Br)Br (stereo unspecified)

melting point [°C] | Compound
150 to 152 | CNC(=O)N1N=C(c2ccc(NC(C)=O)cc2)c2cc3c(cc2CC1C)OCO3 (stereo unspecified)
206 | Cc1nc2cc(CN3CCN(C(c4ccccc4)c4ccccc4)CC3)ccc2n1C
190 to 192 | CNC(=O)[C@@H]1CC[C@H](C(=O)O)N1Cc1ccccc1 (relative stereo)
53 to 55 | CCCC(=O)C1=C(O)CC(C2(C)CC(C(C)CC)=NO2)CC1=O (stereo unspecified)
57 to 59 | c1cc2c3c(c1)[C@@H]1CCC[C@@H]1N3CCNC2
164 to 165 | CCc1nnc(-c2ccc3occ(-c4ccc(SC)cc4)c3c2)o1
186 to 188 | OCC1(CO)COC(c2nc(-c3ccccc3)c(-c3ccccc3)n2Cc2ccccc2)OC1
78.2 | C=CCC(C#N)(C#N)Cc1c(F)c(F)c(F)c(F)c1F
112 | COC(=O)c1ccc2sc(Cl)nc2c1C
171 to 172 | Cc1c(NC(=O)c2ccc(-c3ccc(F)cc3)cc2)ccc2cc(CN3CCC(c4ccccc4)CC3)cnc12
164 | O=C1CCCc2nc3ccccc3c(NCc3ccccc3F)c21
213 | CC#CCOc1ccc(S(=O)(=O)C(C(=O)NO)c2cccc3ccccc23)cc1 (stereo unspecified)
207 to 211 | CS(=O)(=O)c1ccc(COc2cc(C=C3SC(=S)N(CC(=O)O)C3=O)ccc2OCc2ccccc2)cc1
84 to 85 | COc1ccc(OC)c(OC)c1OC
283 to 285 | COc1cc(C(=O)O)ccc1Cc1cccc2ccc(C(N)=O)cc12
160 | CN(C(=O)C(F)(F)F)c1ccc(C2=NC[C@@H](OC(=O)Nc3ccccc3)[C@H](c3ccccc3)O2)cc1 (racemic)
140 to 142 | COc1c(CN)c2c(c3c1OC(C)(C)C3)C(c1ccccc1)=NC(C)(C)C2
74 to 76 | C=CCOc1ccc2oc(C(=O)c3ccc(OC)cc3)c(C)c2c1
107 to 110 | CCOC(=O)CNC(=O)Nc1ccc(C(=N)NC(=O)OC(C)(C)C)cc1
171 to 173 | Cc1cccc(Sc2cncc3sc(C(N)=O)cc23)c1

Compound | melting point [°C]
CC(C)Cc1ccc(CCCCc2cc3c(s2)NC(=S)CN=C3c2ccccc2Cl)cc1 | 133 to 135
CCCCCCCCCCCC1=NC(=Cc2[nH]c(-c3ccc[nH]3)cc2OCC)C=C1 | 94 to 96
CCOC(=O)c1ncn2c1[C@@H]1CCN1C(=O)c1c(Cl)cccc1-2 | 184 to 185
N#Cc1nn(-c2c(Cl)cc(C(F)(F)F)cc2Cl)cc1C1(C(F)(F)F)CC1 | 141
CCOP(=O)(OCC)N1C(=O)[C@@H](NC(=O)OC(C)(C)C)[C@@H]1C | 101 to 104
N#CC1(Nc2ccc(Cl)cc2)CCN(C(=O)c2cc(C(F)(F)F)cc(C(F)(F)F)c2)CC1 | 176 to 180
COC(=O)C(O)(c1cc(F)cc(F)c1)c1cc(F)cc(F)c1 | 113 to 114
CCOC12N=C(c3cccnc3)SC1Cc1cc(Cl)ccc12 (stereo unspecified) | 89 to 90
CN1C(=O)C(N)N=C(c2ccccc2)c2cnccc21 (stereo unspecified) | 109 to 123
